Measurements taken from patent US20250381129A1, “ANTI-AGING SKIN CARE COMPOSITION” (L'OREAL, priority 2024, published 2025).

Tests used:
Settings in all cases: topical, 5 consecutive days, HPR 0.01%, LA 3%, Eperuline 1% or 3%
IL-23 = test: Quantification of secreted IL-23 in culture supernatant of CSC-stimulated human ex-vivo skin (ProcartaPlex/Luminex)
Method: (§1) Human ex-vivo skin was cultured with or without CSC and topically treated with either HPR, HPR-LA, HPR-Eperuline and HPR-LA-Eperuline for 5 days consecutive days (See FIG. 2B; See Table 4 for concentrations).
(§2) Skin tissues were divided into groups of three and placed in the 24-well transwell plates, […] (Cell stimulation cocktail 500×(50-930-5)) was diluted to a 2× concentration in culture media and 650 uL was added to the well on the first day. Topical treatments were undertaken daily by pipetting 5 uL of treatments onto the tissue and using a Q-tip, spreading treatments across the tissue and left to absorb at room temperature for 30 minutes. Base media without stimulants served as the control group. Tissues were replenished with fresh media with the stimulant on day 1 and 3. On days 1, 3 and 5, supernatant from the culture was collected and aliquoted, and the tissues were bisected and fixed in 10% neutral buffered formalin (Fisher Scientific 22-126-347) for 3 h and then switched to 70% ethanol for storage until histology.
(§3) Tissue culture supernatant was collected at the end of the cultures to evaluate the secretion of several cytokines, chemokines, and growth factors. […]
(§4) Data were assessed using a two-way ANOVA with multiple comparison test. […]

IL-1A = test: Quantification of secreted IL-1A in culture supernatant of CSC-stimulated human ex-vivo skin (ProcartaPlex/Luminex)
Method: as §1, §2, §3, §4

[1] = system: CSC-stimulated human ex-vivo skin; test: H&E histological analysis of CSC-stimulated human ex-vivo skin
Method: as §1
Fresh human ex-vivo skin was obtained through donor informed consent following abdominoplasty procedures. The tissues were obtained through BioIVT (Westbury, NY, USA) following an approved IRB protocol and shipped to a BSC level 2 research laboratory within 24 h after the procedure where the experiments took place. All experiments were performed in accordance with relevant guidelines and regulations. Donors included a person, person and person. Ex vivo tissues were prepared by excising the subcutaneous fat followed by punch biopsies with disposable 12 mm Skin Biopsy Punch (Fisher Scientific, NC9253254) and placed in 24-well transwell plates with permeable polyester membrane inserts (Fisher Scientific, 07-200-161). At least three biopsies were used for each condition.
Skin tissues were divided into groups of three and placed in the 24-well transwell plates, […] (Cell stimulation cocktail 500×(50-930-5)) was diluted to a 2× concentration in culture media and 650 uL was added to the well on the first day. […]

CC1=C(/C=C/C(C)=C/C=C/C(C)=C/C(=O)OCC(=O)C(C)(C)C)C(C)(C)CCC1 [HPR, hydroxypinacolone retinoate]
secreted IL-23 (IL-23): significant increase | secreted IL-1A (IL-1A): significant increase | histological signs of inflammation (epidermal spongiosis, immune infiltration) [1]: exacerbated
